Usually IC50 stands for the concentration at which inhibition is half-maximal. As a reminder, the EC50 is the concentration needed to bring the measured effect to its halfway point.

Each structure is given as a SMILES string.

The target in one assay is PD-1/PD-L1 (Homo sapiens, UniProt Q9NZQ7). Put plainly: PD-1/PD-L1 biochemical protein-protein interaction assay (ALPHA). Format: binding. As to conditions: 0.3 nM His tagged PD-L1, 2.5 nM biotinylated Fc-PD-1, 60 minutes at 25° C., read-out: IC50 PD-L1-PD-1 Alpha IC50-mono PD-L1-fcP-D1. Put shortly:
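His-PD-L1 ECD 0.3 nM + biotin-Fc-PD-1 2.5 nM (final), 25 mM Hepes pH 7.4, 150 mM NaCl, 3.4 mM EDTA; 60 min, 25° C; anti-His acceptor/streptavidin donor ALPHA beads; decreased signal = blocked binding; 4-parameter IC50.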

The target of assay [1] is T1, interaction between the recombinant extracellular domain (ECD) of PD-1 and native cell-bound PD-L1 (Homo sapiens, UniProt Q9NZQ7).
T1 construct: expressed in transfected cells
The assay can be described thus: CHO/PD-L1 cell capture assay. Format: cell-based. As to conditions: CHO cells overexpressing PD-L1, pre-incubated 1 hr with compound, captured on biotinylated Fc-PD-1 coated plates, 75 min at room temperature. The protocol:
EC50-CHO/PD-L1-Capture Assay:
Compounds were tested in a cell capture assay to determine if they can specifically block the interaction between the recombinant extracellular domain (ECD) of PD-1 and native cell-bound PD-L1. Binding affinity of stable CHO cells overexpressing PD-L1 with its cognate recombinant ligand coated on plates was measured by counting the number of ‘captured’ cells. High-capacity streptavidin- coated plates were incubated with biotylated-Fc-PD-1 for 2 hours in PBS. Unbound ligand was washed out. CHO-PD-L1 cells (resuspended in PBS pH 7.4, 0.5 mM EDTA, and 2% bovine serum albumin) were pre-incubated for 1 hr with compound, dispensed into each PD-1 ECD coated well and then incubated for 75 min at room temperature. To stop the capture assay, a fixative/staining solution (final concentrations are 1.3% glutaraldehyde and 1.67 μM Draq5) was gently added to the cells and incubated for 2 hrs at room temperature. Unbound cells were then washed out and ‘captured’ cells were enumerated using a high-content microscopy system. EC50 values were calculated from the fit of the dose-response curves to a four-parameter equation. Representative data are shown below in Table 2.

The next assay addresses T2, PD-1/PD-L1 interaction (Homo sapiens, UniProt Q9NZQ7).
T2 construct: expressed in transfected cells; host or cells: CHO cells (aAPC-PD-L1) co-cultured with Jurkat cells overexpressing PD-1 and an NFAT-luciferase reporter
The assay can be described thus: PD-1/PD-L1 NFAT reporter co-culture assay. Type of assay: cell-based. As to conditions: Jurkat PD-1 NFAT-luciferase cells co-cultured with aAPC-PD-L1 CHO cells, 6 hrs at 37° C.; read-out: EC50 NFAT Luciferase. Put shortly:
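Jurkat cells overexpressing PD-1 with NFAT-driven luciferase were mixed with compound in RPMI 1640/2% FBS and seeded onto overnight-plated CHO aAPC-PD-L1 cells expressing surface anti-CD3 and PD-L1. Co-culture ran 6 h at 37 °C; luminescence read with ONE-Glo; EC50 from four-parameter fit.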

Sequence of PD-1/PD-L1 (Q9NZQ7 19-238 limits assumed): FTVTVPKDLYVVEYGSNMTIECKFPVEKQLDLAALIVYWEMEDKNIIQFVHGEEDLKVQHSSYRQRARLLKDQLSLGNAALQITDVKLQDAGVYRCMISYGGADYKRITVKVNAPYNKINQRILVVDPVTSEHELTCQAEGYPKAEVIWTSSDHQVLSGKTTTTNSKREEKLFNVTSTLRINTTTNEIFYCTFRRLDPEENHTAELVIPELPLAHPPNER
T1 sequence (Q9NZQ7 19-290): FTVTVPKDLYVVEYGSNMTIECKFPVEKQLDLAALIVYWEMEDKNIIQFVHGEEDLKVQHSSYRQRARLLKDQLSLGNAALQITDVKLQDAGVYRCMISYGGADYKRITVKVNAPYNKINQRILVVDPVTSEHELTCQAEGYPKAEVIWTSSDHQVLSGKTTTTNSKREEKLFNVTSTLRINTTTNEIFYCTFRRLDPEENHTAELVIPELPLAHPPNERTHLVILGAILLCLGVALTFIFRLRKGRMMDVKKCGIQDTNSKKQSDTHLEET
T2 sequence (Q9NZQ7 19-290): as above

For the compound `COc1nc(O[C@H]2CCc3c(-c4cccc5c4CC[C@@H]5Oc4nc(OC)c(CN[C@@](C)(CO)C(=O)O)cc4Br)cccc32)c(Br)cc1CN[C@@](C)(CO)C(=O)O` [Example 5, (2S,2′S)-2,2′-((((((1S,1′S)-2,2′,3,3′-tetrahydro-1H,1′H-[4,4′-biindene]-1,1′-diyl)bis(oxy))bis(5-bromo-2-methoxypyridine-6,3-diyl))bis(methylene))bis(azanediyl))bis(3-hydroxy-2-methylpropanoic acid)], the IC50 on PD-1/PD-L1 worked out at 0.1 nM. The EC50 amounted to 38.1 nM in assay [1] and 29 nM on PD-1/PD-L1 interaction.
For `COc1nc(OC2CCc3c(-c4cccc5c4CCC5Oc4nc(OC)c(CNC[C@@H](O)CC(=O)O)cc4Cl)cccc32)c(Cl)cc1CNC[C@@H](O)CC(=O)O` (stereo partly drawn) [Example 9, (3S,3′S)-4,4′-(((((2,2′,3,3′-tetrahydro-1H,1′H-[4,4′-biindene]-1,1′-diyl)bis(oxy))bis(5-chloro-2-methoxypyridine-6,3-diyl))bis(methylene))bis(azanediyl))bis(3-hydroxybutanoic acid)], at PD-1/PD-L1, the IC50 stood at 0.5 nM. Also, the EC50 in assay [1] was determined as 102 nM; on PD-1/PD-L1 interaction it was 340 nM.
On to `COc1nc(O[C@H]2CCc3c(-c4cccc5c4CC[C@@H]5Oc4ccc(CNC[C@@H](O)CC(=O)O)c(OC)n4)cccc32)ccc1CNC[C@@H](O)CC(=O)O` [Example 11, (3S,3′S)-4,4′-((((((1S,1′S)-2,2′,3,3′-tetrahydro-1H,1′H-[4,4′-biindene]-1,1′-diyl)bis(oxy))bis(2-methoxypyridine-6,3-diyl))bis(methylene))bis(azanediyl))bis(3-hydroxybutanoic acid)], for which the IC50 at PD-1/PD-L1 came to 0.4 nM. For the same compound, the EC50 in assay [1] turned out to be 170 nM; on PD-1/PD-L1 interaction it was 1100 nM.
Regarding `Cc1c(COc2nc(OCCC(N)=O)c(CNC[C@@H](O)CC(=O)O)cc2Br)cccc1-c1cccc(COc2nc(OCCC(N)=O)c(CNC[C@@H](O)CC(=O)O)cc2Br)c1C` [Example 145, (3S,3′S)-4,4′-((((((2,2′-dimethyl-[1,1′-biphenyl]-3,3′-diyl)bis(methylene))bis(oxy))bis(2-(3-amino-3-oxopropoxy)-5-bromopyridine-6,3-diyl))bis(methylene))bis(azanediyl))bis(3-hydroxybutanoic acid)], the results for the EC50 (in assay [1]; at PD-1/PD-L1 interaction) were 63.6 nM and 362 nM, respectively.
On the same counts, the results for `Cc1c(COc2nc(OCc3cc(C#N)ccn3)c(CNC[C@@H](O)CC(=O)O)cc2Br)cccc1-c1cccc(COc2nc(OCc3cc(C#N)ccn3)c(CNC[C@@H](O)CC(=O)O)cc2Br)c1C` [Example 148, (3S,3′S)-4,4′-((((((2,2′-dimethyl-[1,1′-biphenyl]-3,3′-diyl)bis(methylene))bis(oxy))bis(5-bromo-2-((4-cyanopyridin-2-yl)methoxy)pyridine-6,3-diyl))bis(methylene))bis(azanediyl))bis(3-hydroxybutanoic acid)] are 132 nM and 124 nM.
On the same counts, the results for `COCCCOc1nc(OCc2cccc(-c3cccc(COc4nc(OCCCOC)c(CNC[C@@H](O)CC(=O)O)cc4Br)c3C)c2C)c(Br)cc1CNC[C@@H](O)CC(=O)O` [Example 149, (3S,3′S)-4,4′-((((((2,2′-dimethyl-[1,1′-biphenyl]-3,3′-diyl)bis(methylene))bis(oxy))bis(5-bromo-2-(3-methoxypropoxy)pyridine-6,3-diyl))bis(methylene))bis(azanediyl))bis(3-hydroxybutanoic acid)] are 275 nM and 668 nM.
For `COc1nc(OCc2cccc(-c3cccc(COc4nc(OC)c(CNC[C@@H](F)C(=O)O)cc4Cl)c3C)c2C)c(Cl)cc1CNC[C@@H](F)C(=O)O` [Example 179, (2R,2′R)-3,3′-((((((2,2′-dimethyl-[1,1′-biphenyl]-3,3′-diyl)bis(methylene))bis(oxy))bis(5-chloro-2-methoxypyridine-6,3-diyl))bis(methylene))bis(azanediyl))bis(2-fluoropropanoic acid)], in that order: 319 nM and 655 nM.
Take `COc1nc(OCc2cccc(-c3cccc(COc4nc(OC)c(CN[C@H](C)[C@@H](O)CC(=O)O)cc4Cl)c3C)c2C)c(Cl)cc1CN[C@H](C)[C@@H](O)CC(=O)O` [Example 182, (3S,3′S,4R,4′R)-4,4′-((((((2,2′-dimethyl-[1,1′-biphenyl]-3,3′-diyl)bis(methylene))bis(oxy))bis(5-chloro-2-methoxypyridine-6,3-diyl))bis(methylene))bis(azanediyl))bis(3-hydroxypentanoic acid)]: the figures for the EC50 (in assay [1]; at PD-1/PD-L1 interaction) were 91.4 nM and 439 nM, respectively.
In the case of `COc1nc(OCc2cccc(-c3cccc(COc4nc(OC)c(CN[C@@H]5CC[C@H](C(=O)O)C5)cc4Cl)c3C)c2C)c(Cl)cc1CN[C@@H]1CC[C@H](C(=O)O)C1` [Example 185, (1S,1′S,3R,3′R)-3,3′-((((((2,2′-dimethyl-[1,1′-biphenyl]-3,3′-diyl)bis(methylene))bis(oxy))bis(5-chloro-2-methoxypyridine-6,3-diyl))bis(methylene))bis(azanediyl))bis(cyclopentane-1-carboxylic acid)], the figures for the EC50 (in assay [1]; on PD-1/PD-L1 interaction) were 277 nM and 195 nM, respectively.
On the same counts, the results for `C[C@](CO)(NCc1cc(Br)c(OCc2cccc(-c3cccc(COc4nc(OCc5cncc(C#N)c5)c(CN[C@](C)(CO)C(=O)O)cc4Br)c3Cl)c2Cl)nc1OCc1cncc(C#N)c1)C(=O)O` [Example 198, (2R,2′R)-2,2′-((((((2,2′-Dichloro-[1,1′-biphenyl]-3,3′-diyl)bis(methylene))bis(oxy))bis(5-bromo-2-((5-cyanopyridin-3-yl)methoxy)pyridine-6,3-diyl))bis(methylene))bis(azanediyl))bis(3-hydroxy-2-methylpropanoic acid)] are 101 nM and 69 nM.
On to `COc1cc(OCc2cccc(-c3cccc(COc4cc(OCc5cncc(C#N)c5)c(CNC[C@H](O)C(=O)O)cc4Cl)c3C)c2C)c(Cl)cc1CNC[C@H](O)C(=O)O` [Example 216, (S)-3-((4-((3′-((4-((((S)-2-carboxy-2-hydroxyethyl)amino)methyl)-2-chloro-5-((5-cyanopyridin-3-yl)methoxy)phenoxy)methyl)-2,2′-dimethyl-[1,1′-biphenyl]-3-yl)methoxy)-5-chloro-2-methoxybenzyl)amino)-2-hydroxypropanoic acid], for which the EC50 in assay [1] was determined as 206 nM; on PD-1/PD-L1 interaction, 514 nM.
On the same counts, the results for `COc1cc(OCc2cccc(-c3cccc(COc4cc(OCc5cncc(C#N)c5)c(CNCC(=O)O)cc4Cl)c3C)c2C)c(Cl)cc1CNCC(=O)O` [Example 217, (4-((3′-((4-(((carboxymethyl)amino)methyl)-2-chloro-5-((5-cyanopyridin-3-yl)methoxy)phenoxy)methyl)-2,2′-dimethyl-[1,1′-biphenyl]-3-yl)methoxy)-5-chloro-2-methoxybenzyl)glycine] are 71.6 nM and 589 nM.
For the compound `COc1nc(OCc2cccc(-c3cccc(COc4nc(OC)c(CNC5(C#N)CCC5)cc4Cl)c3C)c2C)c(Cl)cc1CNC1(C#N)CCC1` [Example 231, 1,1′-((((((2,2′-dimethyl-[1,1′-biphenyl]-3,3′-diyl)bis(methylene))bis(oxy))bis(5-chloro-2-methoxypyridine-6,3-diyl))bis(methylene))bis(azanediyl))bis(cyclobutane-1-carbonitrile)], the EC50 was 277 nM in assay [1] and 962 nM on PD-1/PD-L1 interaction.
On the same counts, the results for `COc1nc(OCc2cccc(-c3cccc(COc4nc(OC)c(CN5CCC[C@@H]5C(=O)O)cc4Cl)c3C)c2C)c(Cl)cc1CN1CCC[C@@H]1C(=O)O` [Example 234, (2′R)-(((((2,2′-dimethyl-[1,1′-biphenyl]-3,3′-diyl)bis(methylene))bis(oxy))bis(5-chloro-2-methoxypyridine-6,3-diyl))bis(methylene))di-D-proline] are 132 nM and 444 nM.
Regarding `Cc1c(COc2cc(OCc3cncc(C#N)c3)c(CNC[C@@H](O)CC(=O)O)cc2Cl)cccc1-c1cccc(-c2ccc(OCCNC[C@@H](O)CC(=O)O)c(Cl)c2)c1C` [Example 288, (S)-4-((4-((4″-(2-(((S)-3-carboxy-2-hydroxypropyl)amino)ethoxy)-3″-chloro-2,2′-dimethyl-[1,1′:3′,1″-terphenyl]-3-yl)methoxy)-5-chloro-2-((5-cyanopyridin-3-yl)methoxy)benzyl)amino)-3-hydroxybutanoic acid], the EC50 in assay [1] was determined as 10.3 nM; at PD-1/PD-L1 interaction it was 57 nM.
